According to patent publication US4077981A, “Certain 1-alkyl-2-dichlorophenyliminopyrrolidines” (Bayer Aktiengesellschaft, priority 1968, dated 1978):

Tests used:
[1] = tested on: Boophilus microplus, Biarra strain (resistant); assay: In-vitro test for ovicidal effect on ticks (Biarra strain)
Method: In-vitro Test for Ovicidal Effect on Ticks
The emulsion concentrate so obtained is diluted with water to the application concentration desired in each case.
After immersion of, in each case, 10 female specimens of the various strains of ticks, the individual ticks are transferred to plastic dishes, the bottom of each of which is covered with a disc of filter paper.

[2] = tested on: Boophilus, Biarra strain; assay: In-vitro test for ovicidal and adulticidal effect on ticks; design: species or system Boophilus microplus
Method: In-vitro test for ovicidal and adulticidal effect on ticks
The ovicidal effect is determined as stated in Example 1.
In addition, the adulticidal effectiveness of the preparation of the given active compound after 24 hours is determined by ascertaining the voluntary movement of limbs and bodies of the immersed adult ticks after stimulation with a fine needle compared with the voluntary movement of limbs and bodies of the untreated adult ticks. The effectiveness is stated in %, 100% meaning that no movements of any kind of the limbs and bodies were any longer detectable, and 0% signifying that the ticks moved limbs and bodies in normal manner.
The results below were obtained in a similar manner to those in accordance with Example 4.

[3] = Table 1b, concentration giving 100% inhibition
[4] = Table 1b, concentration giving >50% inhibition
[5] = Table 5, concentration giving 50% inhibition
[6] = Table 5, concentration giving 100% inhibition
[7] = Table 4, concentration giving 50% inhibition
[8] = Table 4, concentration giving 100% inhibition
[9] = Table 2, concentration giving 100% inhibition
[10] = Table 2, concentration giving >50% inhibition

Row | SMILES | Ovicidal effect: 100% inhibition with the stated concentration of active compound [1, 3] [% by weight] | Ovicidal effect: >50% inhibition with the stated concentration of active compound [1, 4] [% by weight] | Ovicidal effect: 100% inhibition with the stated concentration of active compound [1, 9] [% by weight] | Ovicidal effect: >50% inhibition with the stated concentration of active compound [1, 10] [% by weight] | also measured
1 | CCCN1CCCC1=Nc1ccc(Cl)cc1Cl [Compound 91] | 0.03 | 0.01 | – | – | –
2 | C=CCCN1CCCC1=Nc1ccc(Cl)cc1C | – | – | – | – | Adulticidal and ovicidal effect: 50% inhibition with the stated concentration of active compound [2, 5]: 0.008 % by weight; Adulticidal and ovicidal effect: 100% inhibition with the stated concentration of active compound [2, 6]: 0.01 % by weight
3 | CC=CCN1CCCC1=Nc1ccc(C)c(Cl)c1 | – | – | – | – | Adulticidal and ovicidal effect: 50% inhibition with the stated concentration of active compound [2, 5]: 0.008 % by weight; Adulticidal and ovicidal effect: 100% inhibition with the stated concentration of active compound [2, 6]: 0.1 % by weight
4 | C=CCN1CCCC1=Nc1ccc(Cl)c(C)c1 | – | – | – | – | Adulticidal and ovicidal effect: 50% inhibition with the stated concentration of active compound [2, 7]: 0.02 % by weight; Adulticidal and ovicidal effect: 100% inhibition with the stated concentration of active compound [2, 8]: 0.03 % by weight
5 | Cc1cc(Cl)ccc1N=C1CCCN1CC(C)C [Compound 101] | 0.1 | 0.05 | – | – | –
6 | CCN1CCCC1=Nc1ccc(Br)cc1Cl [Compound 311] | – | – | 0.1 | 0.08 | –
7 | CCCN1CCCC1=Nc1ccc(F)cc1Br [Compound 391] | – | – | 0.03 | 0.02 | –
8 | C=CCN1CCCC1=Nc1ccc(Br)c(Cl)c1 [Compound 411] | – | – | 0.3 | 0.1 | –
9 | CN1CCCC1=Nc1cc(Cl)c(Cl)cc1Cl [Compound 131] | 0.03 | 0.01 | – | – | –
10 | CCN1CCCC1=Nc1ccc(Cl)cc1Cl [Compound 21] | 0.1 | 0.01 | – | – | –
11 | CCCCN1CCCC1=Nc1ccc(C)c(Br)c1 | – | – | – | – | Adulticidal and ovicidal effect: 50% inhibition with the stated concentration of active compound [2, 5]: 0.02 % by weight; Adulticidal and ovicidal effect: 100% inhibition with the stated concentration of active compound [2, 6]: 0.03 % by weight
12 | CCCCN1CCCC1=Nc1ccc(Br)cc1C [Compound 461] | – | – | 0.3 | 0.2 | –
13 | CCCN1CCCC1=Nc1ccc(Cl)c(Cl)c1 [Compound 61] | 0.03 | 0.01 | – | – | –
14 | CCCCN1CCCC1=Nc1ccc(Cl)cc1Cl [Compound 161] | 0.03 | 0.01 | – | – | –
15 | Cc1cc(Cl)ccc1N=C1CCCN1C(C)(C)C [Compound 231] | 0.3 | 0.1 | – | – | –
16 | CCCN1CCCC1=Nc1ccc(Cl)c(Br)c1 | – | – | – | – | Adulticidal and ovicidal effect: 50% inhibition with the stated concentration of active compound [2, 7]: 0.1 % by weight; Adulticidal and ovicidal effect: 100% inhibition with the stated concentration of active compound [2, 8]: 0.3 % by weight
17 | CCCCN1CCCC1=Nc1ccc(Br)cc1Br [Compound 291] | – | – | 0.3 | 0.1 | –
18 | C=CCN1CCCC1=Nc1ccc(Cl)cc1Br [Compound 451] | – | – | 0.1 | 0.01 | –
19 | CC1CCC(=Nc2ccc(Cl)c(Cl)c2)N1C (stereo not shown) [Compound 201] | 0.3 | 0.1 | – | – | –
20 | Cc1cc(Cl)ccc1N=C1CCCN1C [Compound 141] | 0.3 | 0.1 | – | – | –
21 | CCN1CCCC1=Nc1ccc(Cl)c(Cl)c1 [Compound 81] | 0.3 | 0.1 | – | – | –
22 | CN1CCCC1=Nc1ccc(Br)cc1Br [Compound 251] | – | – | 0.1 | 0.03 | –
23 | CCN1CCCC1=Nc1ccc(Cl)cc1Br [Compound 351] | – | – | 0.1 | 0.03 | –
24 | CC(C)CN1CCCC1=Nc1ccc(Cl)cc1Cl [Compound 171] | 0.1 | 0.03 | – | – | –

Row | SMILES | Ovicidal effect: 100% inhibition with the stated concentration of active compound [1, 3] [% by weight] | Ovicidal effect: >50% inhibition with the stated concentration of active compound [1, 4] [% by weight] | Ovicidal effect: 100% inhibition with the stated concentration of active compound [1, 9] [% by weight] | Ovicidal effect: >50% inhibition with the stated concentration of active compound [1, 10] [% by weight] | also measured
25 | CCCCN1CCCC1=Nc1ccc(Br)cc1Cl [Compound 331] | – | – | 0.3 | 0.1 | –
26 | CN1CCCC1=Nc1ccc(F)cc1Br [Compound 381] | – | – | 0.3 | 0.1 | –
27 | CN1CCCC1=Nc1ccc(Cl)c(Cl)c1 [Compound 191] | 0.3 | 0.1 | – | – | –
28 | CCCCN1CCCC1=Nc1ccc(Cl)cc1Br [Compound 371] | – | – | 0.03 | 0.01 | –
29 | CCCN1CCCC1=Nc1ccc(Br)cc1Br [Compound 271] | – | – | 0.3 | 0.2 | –
30 | C=CCN1CCCC1=Nc1ccc(Br)cc1CC [Compound 441] | – | – | 0.3 | 0.1 | –
31 | CCN1CCCC1=Nc1ccc(Br)cc1Br [Compound 261] | – | – | 0.1 | 0.05 | –
32 | CCCN1CCCC1=Nc1ccc(Cl)cc1Br [Compound 361] | – | – | 0.1 | 0.03 | –
33 | CC(C)N1CCCC1=Nc1ccc(Cl)c(Cl)c1 [Compound 121] | 0.1 | 0.03 | – | – | –
34 | CN1CCCC1=Nc1ccc(Cl)cc1Br [Compound 341] | – | – | 0.1 | 0.03 | –
35 | C=CCN1CCCC1=Nc1ccc(Br)cc1C [Compound 431] | – | – | 0.1 | 0.03 | –
36 | C=CCN1CCCC1=Nc1ccc(F)c(Br)c1 [Compound 471] | – | – | 0.1 | 0.08 | –
37 | CC(C)(C)N1CCCC1=Nc1ccc(Cl)cc1Cl [Compound 181] | 0.3 | 0.1 | – | – | –
38 | C=CCN1CCCC1=Nc1ccc(Br)cc1Br [Compound 281] | – | – | 0.1 | 0.03 | –
39 | CCCCN1CCCC1=Nc1ccc(Br)c(Cl)c1 [Compound 421] | – | – | 0.3 | 0.2 | –
40 | CCCCN1CCCC1=Nc1ccc(Cl)cc1C [Compound 151] | 0.3 | 0.1 | – | – | –
41 | CCCN1CCCC1=Nc1ccc(Br)cc1Cl [Compound 321] | – | – | 0.3 | 0.1 | –
42 | CC(C)N1CCCC1=Nc1ccc(Cl)cc1Cl [Compound 221] | 0.1 | 0.03 | – | – | –
43 | CCN1C(=Nc2ccc(Cl)c(Cl)c2)CCC1C (stereo not shown) [Compound 51] | 0.1 | 0.03 | – | – | –
44 | CC(C)CN1CCCC1=Nc1ccc(Cl)c(Cl)c1 [Compound 111] | 0.1 | 0.03 | – | – | –
45 | CN1CCCC1=Nc1ccc(Br)cc1Cl [Compound 301] | – | – | 0.1 | 0.05 | –
46 | CCN1CCCC1=Nc1cc(Cl)c(Cl)cc1Cl [Compound 31] | 0.3 | 0.1 | – | – | –
47 | CCN1CCCC1=Nc1ccc(Br)c(Cl)c1 [Compound 401] | – | – | 0.1 | 0.08 | –
